For eight compounds, GI50 and IC50 results are on record in patent publication US20230293535A1, “ERBB/BTK INHIBITORS” (Dizal (Jiangsu) Pharmaceutical Co., Ltd., priority 2018, published 2023).

Type in all cases: cell-based
The test system of assay [1] is Ri-1 cells. In words: BTK (wt) cell proliferation, Ri-1 (CellTiter-Glo, 72 h).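 Also: viable cells quantified as cellular ATP luminescence, proliferation normalized to a time-zero plate and the DMSO control, compounds tested across a dilution series.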 The conditions noted are these: Ri-1, 72 h, Ri-1 cells, 72 h, CellTiter-Glo; read-out: BTK WT Ri-1 GI50. Background: Cellular ATP, detected with luciferase, serves as a proxy for viable cell number.
Assay [2] has as its target T1, human EGFR exon 20 H773_V774insNPH (Homo sapiens, UniProt P00533, INS773NPH).
T1 construct: host or cells: Ba/F3
In words: EGFR Exon20 NPH insertion cellular phosphorylation inhibition (MSD pEGFR Y1068/total EGFR).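 Also: IL3-independent Ba/F3 cells with constitutively phosphorylated EGFR, compound exposure at 37 °C under 5% CO2, electrochemiluminescent MSD measurement of the p-EGFR to total EGFR ratio.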 The settings on record: Ba/F3 EGFR NPH ins cells, 4 h compound, p-EGFR(Y1068)/total EGFR.

Assay [3] concerns the target T2, human EGFR exon 20 V769_D770insASV (Homo sapiens, UniProt P00533, INS769ASV).
T2 construct: expressed in transfected cells; host or cells: Ba/F3 (DSMZ ACC-300), lentiviral transduction, puromycin selection, IL3 depletion
Put plainly: EGFR Exon20 ASV insertion cellular phosphorylation inhibition (MSD pEGFR Y1068/total EGFR).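 Also: electrochemiluminescent readout on an MSD SECTOR Imager, IL3-independent transduced cells in medium with 1% FBS, compound concentration series at 37 °C and 5% CO2.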 The settings on record: Ba/F3 EGFR ASV ins cells, 4 h compound, p-EGFR(Y1068)/total EGFR.

Assay [4] has as its system WT EGFR cell line A-431. In words: Cell proliferation, WT EGFR A431 (CellTiter-Glo, 72 h).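 Also: proliferation from a luminescent ATP viability signal, expressed as 100 × (treated minus time-zero plate) over (DMSO control minus time-zero plate), cells grown with 10% FBS.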 The conditions noted are these: Homo sapiens, A-431, 72 h, A431, 72 h proliferation; read-out: EGFR WT A431 GI50.
Assay [5] has as its system Ba/F3 EGFR NPH ins cells. In words: Cell proliferation, Ba/F3 EGFR NPH ins (CellTiter-Glo, 72 h).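 Also: IL3-independent cells carrying constitutively phosphorylated EGFR, compound dilution series, viable cells quantified by ATP luminescence, growth relative to DMSO wells after subtracting pre-dosing (day 0) baseline.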 The settings on record: Ba/F3 EGFR, 72 h, Ba/F3 EGFR NPH ins, 72 h proliferation; read-out: EGFR Exon20 NPH insertion GI50.
Protocol: Similar to recombinant human EGFR exon 20 H769_V770insASV Ba/F3 cell line, the recombinant human EGFR exon 20 H773_V774insNPH Ba/F3 cell line also expresses constitutively phosphorylated EGFR protein and proliferates in the absence of IL3, which could be used for in vitro PD and anti-proliferation assays.
WT or mutant cells were seeded in 384 well plates at appropriate concentrations with corresponding growth media supplemented with 10% FBS, for each experiment, identical plates were prepared in duplicates, and the plates were incubated overnight. On the next day, one of each duplicated plates was dosed with tested compounds at a series of concentrations, and another one of the duplicated plate was analysied for G0 value. The dosed plates were incubate for another 72 h at 37° C. with 5% CO2 and the number of viable cells in each well of the G0 plates or the dosed plates were measured by CellTiter-Glo® Luminescent Cell Viability Assay (Promega). This assay is a luminescent method for determining the number viable cells through measurement of cellular ATP concentration by detection of luciferase activity. Detection reagents (15 µl) was dispensed into per well, and the plates were incubate for 30 min at room temperature. Then, the luminescence in each well was measured using the Envision plate reader (PerkinElmer). The percentage of proliferation was calculated based on the formula: %Proliferation= 100 × (G3 value of sample well-Go value)/(G3 value of DMSO control-Go value).
In assay [6] the target is T3, human Her2 exon 20 insertion mutation YVMA (Homo sapiens, UniProt P04626, INS775YVMA).
T3 construct: expressed in transfected cells; host or cells: NIH-3T3, lentiviral transduction, puromycin selection
In words: Her2 Exon 20 YVMA insertion cellular phosphorylation inhibition (MSD p-Her2 Y1248/total Her2).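 Also: lentivirally transduced NIH-3T3 cells in 1% FBS medium, electrochemiluminescent MSD read-out, graded compound concentrations at 37 °C.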 The settings on record: Her2 YVMAins cells, 4 h compound.

In assay [7] the test system is NCI-H1975 EGFR L858R/T790M cells. In words: Cell proliferation, NCI-H1975 EGFR L858R/T790M (CellTiter-Glo, 72 h).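 Also: viable cells quantified by luciferase-based ATP luminescence, proliferation expressed relative to DMSO-treated wells (100%) after subtracting a parallel plate read at the time of dosing.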 The conditions noted are these: Homo sapiens, NCI-H1975, 72 h, NCI-H1975, 72 h proliferation; read-out: EGFR L858R and T790M mutation GI50.
The target of assay [8] is T4, EGFR L858R&T790M (Homo sapiens, UniProt P00533, L858R/T790M).
T4 construct: host or cells: NCI-H1975
In words: EGFR L858R and T790M cellular phosphorylation inhibition in NCI-H1975 (MSD).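 Also: phosphorylated and total EGFR detected by electrochemiluminescence, cells exposed to compound in medium containing 1% FBS at 37 °C.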 The conditions noted are these: NCI-H1975 cells, 4 h compound, p-EGFR(Y1068)/total EGFR; read-out: EGFR L858R and T790M mutation IC50.
Protocol: One day before the test, WT or mutant cells were seeded in 96 well plates at appropriate concentrations with corresponding growth media supplemented with 1% FBS, and incubated overnight. The next day, tested compounds at a series of concentrations were added into each individual well of the plates, and the plates were incubated for 4 h at 37° C. with 5% CO2.
The EGFR (Y1068) phosphorylation level (activity) of cells in each well were then measured with MSD kit named “MULTI-SPOT®96 4-Spot HB Prototype EGFR Triplex [sequence]: pEGFR(Tyr1068),pEGFR(Tyr1173), Total EGFR” according to the manufacturer’s instruction (MESO SCALE DISCOVERY, Cat# N45ZB-1). The assay is an electrochemiluminescent method for determining both phosphorylated and total EGFR of cells with an MSD SECTOR® Imager and the ratio of p-EGFR/total EGFR can be generated by the machine. The Her2 (Y1248) phosphorylation level (activity) of cells in each well were measured with MSD Kit named “Phospho-ErbB2 (Tyr1248) Assay Whole Cell Lysate Kit” according to the manufacturer’s instruction (MESO SCALE DISCOVERY, Cat# K151CLD-3). The assay is an electrochemiluminescent method (MESO SCALE DISCOVERY) for determining both phosphorylated and total Her2 of cells with an MSD SECTOR® Imager and then the ratio of p-Her2/total Her2 can be generated by the machine.

Assay [9] has as its system OCI-LY-10 cells. Put plainly: BTK (wt) cell proliferation, OCI-LY-10 (CellTiter-Glo, 72 h).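 Also: viable cells quantified via cellular ATP luminescence, proliferation given as percent of DMSO control after subtracting a duplicate plate read at time of dosing.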 The conditions noted are these: Homo sapiens, OCI-Ly10, 72 h, OCI-LY-10 cells, 72 h, CellTiter-Glo; read-out: BTK WT OCI-LY-10 GI50.
Protocol: OCI-LY-10 at 3,750 cells/well, TMD-8 and Ri-1 at 2,000 cells/well, and DB at 1,250 cells/well, respectively, were sorted into 384-well plates in RPMI1640 medium with 10% FBS. After overnight incubation, all cells were incubated with compound at a series of concentrations. Meanwhile, a duplicated plate of each cell line was prepared for measuring G0 value. The dosed plates were further incubated for 72 hours and the number of viable cells was measured by CellTiter-Glo® Luminescent Cell Viability Assay (Promega), a luminescent method for determining the number of viable cells through measurement of cellular ATP concentration using Envision plate reader (PerkinElmer). The percentage of proliferation was calculated as: % Proliferation = 100 × (G3 value of sample well - G0 value)/(G3 value of DMSO control - G0 value).
Assay [10] has as its system TMD-8 cells. In words: BTK (wt) cell proliferation, TMD-8 (CellTiter-Glo, 72 h).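 Also: viable cells quantified by ATP-based luminescence, proliferation expressed as percent of DMSO control after subtracting a time-zero baseline plate read at dosing.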 The conditions noted are these: Homo sapiens, TMD8, 72 h, TMD-8 cells, 72 h, CellTiter-Glo; read-out: BTK WT TMD-8 GI50.
In assay [11] the target is T5, WT EGFR (Homo sapiens, UniProt P00533).
T5 construct: host or cells: A-431
Put plainly: WT EGFR cellular phosphorylation inhibition in A-431 (hEGF stimulated, MSD).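 Also: electrochemiluminescence read-out of EGFR Tyr1068 phosphorylation expressed as ratio to total EGFR, cells kept in medium with 1% FBS, compounds tested as a concentration series.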 The conditions noted are these: A431 cells, 4 h compound, then 100 ng/ml hEGF 10 min.

For assay [12], the system named is Ba/F3 EGFR ASV ins cells. In words: Cell proliferation, Ba/F3 EGFR ASV ins (CellTiter-Glo, 72 h).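 Also: IL3-independent Ba/F3 cells transduced with EGFR V769_D770insASV, cellular ATP luminescence after compound exposure, growth relative to DMSO control with the day-0 baseline reading subtracted.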 The settings on record: Ba/F3 EGFR, 72 h, Ba/F3 EGFR ASV ins, 72 h proliferation; read-out: EGFR Exon20 ASV insertion GI50.
Assay [13] has as its system DB cells. In words: BTK (wt) cell proliferation, DB (CellTiter-Glo, 72 h).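 Also: DB cells in 384-well plates given a dilution series of compound, viable cells read by ATP luminescence, growth expressed versus DMSO control after subtracting a time-zero plate reading.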 The settings on record: Homo sapiens, DB, DB cells, CellTiter-Glo, read-out: Non-BCR activated DB GI50.
For assay [14], the system named is Her2 exon 20 insertion YVMA transduced NIH-3T3 cell line. Put plainly: Cell proliferation, Her2 YVMAins NIH-3T3 (CellTiter-Glo, 72 h).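 Also: viable cells quantified by ATP luminescence, growth over a day-zero baseline plate expressed as percent of DMSO control growth, compound dilution series in 10% FBS medium.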 The settings on record: Mus musculus, NIH3T3, 72 h, Her2 YVMAins cells, 72 h proliferation; read-out: Her2 Exon 20 YVMA insertion GI50.

T5 sequence (P00533 25-1210): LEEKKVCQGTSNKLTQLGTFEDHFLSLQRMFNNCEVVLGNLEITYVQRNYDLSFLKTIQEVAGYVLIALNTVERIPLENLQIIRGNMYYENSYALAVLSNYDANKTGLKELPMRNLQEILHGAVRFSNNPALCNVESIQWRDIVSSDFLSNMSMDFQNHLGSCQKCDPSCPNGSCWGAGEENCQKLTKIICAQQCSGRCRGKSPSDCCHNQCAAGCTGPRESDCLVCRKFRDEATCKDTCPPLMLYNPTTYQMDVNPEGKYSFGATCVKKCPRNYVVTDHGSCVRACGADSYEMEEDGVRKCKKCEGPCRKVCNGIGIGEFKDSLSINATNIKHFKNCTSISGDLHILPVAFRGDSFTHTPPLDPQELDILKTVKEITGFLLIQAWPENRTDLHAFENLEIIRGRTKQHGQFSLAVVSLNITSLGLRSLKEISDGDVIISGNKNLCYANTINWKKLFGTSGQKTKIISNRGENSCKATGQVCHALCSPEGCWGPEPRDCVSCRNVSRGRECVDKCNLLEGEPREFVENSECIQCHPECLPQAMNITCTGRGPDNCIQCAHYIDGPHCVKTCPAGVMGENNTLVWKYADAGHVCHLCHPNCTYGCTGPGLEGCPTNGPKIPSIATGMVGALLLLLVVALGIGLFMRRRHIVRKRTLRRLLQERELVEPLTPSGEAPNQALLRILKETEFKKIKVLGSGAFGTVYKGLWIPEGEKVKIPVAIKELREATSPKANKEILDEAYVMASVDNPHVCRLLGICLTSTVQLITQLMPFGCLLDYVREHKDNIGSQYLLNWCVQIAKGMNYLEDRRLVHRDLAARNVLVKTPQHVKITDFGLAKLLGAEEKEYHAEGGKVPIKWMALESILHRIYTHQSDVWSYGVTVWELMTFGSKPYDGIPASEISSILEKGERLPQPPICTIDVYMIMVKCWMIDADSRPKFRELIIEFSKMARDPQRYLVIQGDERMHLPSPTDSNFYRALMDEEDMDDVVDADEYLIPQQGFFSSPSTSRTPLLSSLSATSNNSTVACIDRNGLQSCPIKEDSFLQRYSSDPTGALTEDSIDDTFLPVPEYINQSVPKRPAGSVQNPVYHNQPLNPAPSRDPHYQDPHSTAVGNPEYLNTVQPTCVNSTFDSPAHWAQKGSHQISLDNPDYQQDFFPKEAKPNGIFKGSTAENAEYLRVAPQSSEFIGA
T1 sequence (P00533 with tags, fused parts or gaps INS773NPH): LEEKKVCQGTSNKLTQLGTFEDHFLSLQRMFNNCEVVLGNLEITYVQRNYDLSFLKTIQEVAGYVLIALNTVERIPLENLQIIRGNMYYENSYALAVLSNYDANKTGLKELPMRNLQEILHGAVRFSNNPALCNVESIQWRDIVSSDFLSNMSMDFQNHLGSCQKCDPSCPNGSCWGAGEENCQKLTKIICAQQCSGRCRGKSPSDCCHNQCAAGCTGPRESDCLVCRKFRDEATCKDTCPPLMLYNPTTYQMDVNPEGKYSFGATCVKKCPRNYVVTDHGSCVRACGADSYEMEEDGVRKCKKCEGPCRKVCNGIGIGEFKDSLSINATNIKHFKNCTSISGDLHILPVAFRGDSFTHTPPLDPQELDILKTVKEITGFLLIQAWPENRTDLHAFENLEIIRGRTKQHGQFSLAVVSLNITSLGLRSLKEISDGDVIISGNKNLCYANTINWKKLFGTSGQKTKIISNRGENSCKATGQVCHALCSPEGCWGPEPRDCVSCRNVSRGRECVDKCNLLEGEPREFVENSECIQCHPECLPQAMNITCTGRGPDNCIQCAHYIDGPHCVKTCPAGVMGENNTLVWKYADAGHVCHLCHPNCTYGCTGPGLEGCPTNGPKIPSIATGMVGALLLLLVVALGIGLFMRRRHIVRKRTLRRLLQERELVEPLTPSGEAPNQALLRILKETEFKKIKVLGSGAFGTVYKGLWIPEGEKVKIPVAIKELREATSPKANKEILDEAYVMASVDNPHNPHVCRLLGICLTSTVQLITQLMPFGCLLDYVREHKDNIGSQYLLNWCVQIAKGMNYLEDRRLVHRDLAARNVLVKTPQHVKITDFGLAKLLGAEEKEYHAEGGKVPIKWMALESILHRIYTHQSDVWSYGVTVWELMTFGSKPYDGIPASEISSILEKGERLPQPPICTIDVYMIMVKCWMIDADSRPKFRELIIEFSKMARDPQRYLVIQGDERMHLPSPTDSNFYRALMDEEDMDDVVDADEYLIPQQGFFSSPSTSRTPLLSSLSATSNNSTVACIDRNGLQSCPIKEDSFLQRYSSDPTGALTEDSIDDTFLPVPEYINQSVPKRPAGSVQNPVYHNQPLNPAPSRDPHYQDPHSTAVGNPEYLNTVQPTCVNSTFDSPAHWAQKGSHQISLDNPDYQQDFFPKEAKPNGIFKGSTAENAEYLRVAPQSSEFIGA
T4 sequence (P00533 25-1210 T790M/L858R): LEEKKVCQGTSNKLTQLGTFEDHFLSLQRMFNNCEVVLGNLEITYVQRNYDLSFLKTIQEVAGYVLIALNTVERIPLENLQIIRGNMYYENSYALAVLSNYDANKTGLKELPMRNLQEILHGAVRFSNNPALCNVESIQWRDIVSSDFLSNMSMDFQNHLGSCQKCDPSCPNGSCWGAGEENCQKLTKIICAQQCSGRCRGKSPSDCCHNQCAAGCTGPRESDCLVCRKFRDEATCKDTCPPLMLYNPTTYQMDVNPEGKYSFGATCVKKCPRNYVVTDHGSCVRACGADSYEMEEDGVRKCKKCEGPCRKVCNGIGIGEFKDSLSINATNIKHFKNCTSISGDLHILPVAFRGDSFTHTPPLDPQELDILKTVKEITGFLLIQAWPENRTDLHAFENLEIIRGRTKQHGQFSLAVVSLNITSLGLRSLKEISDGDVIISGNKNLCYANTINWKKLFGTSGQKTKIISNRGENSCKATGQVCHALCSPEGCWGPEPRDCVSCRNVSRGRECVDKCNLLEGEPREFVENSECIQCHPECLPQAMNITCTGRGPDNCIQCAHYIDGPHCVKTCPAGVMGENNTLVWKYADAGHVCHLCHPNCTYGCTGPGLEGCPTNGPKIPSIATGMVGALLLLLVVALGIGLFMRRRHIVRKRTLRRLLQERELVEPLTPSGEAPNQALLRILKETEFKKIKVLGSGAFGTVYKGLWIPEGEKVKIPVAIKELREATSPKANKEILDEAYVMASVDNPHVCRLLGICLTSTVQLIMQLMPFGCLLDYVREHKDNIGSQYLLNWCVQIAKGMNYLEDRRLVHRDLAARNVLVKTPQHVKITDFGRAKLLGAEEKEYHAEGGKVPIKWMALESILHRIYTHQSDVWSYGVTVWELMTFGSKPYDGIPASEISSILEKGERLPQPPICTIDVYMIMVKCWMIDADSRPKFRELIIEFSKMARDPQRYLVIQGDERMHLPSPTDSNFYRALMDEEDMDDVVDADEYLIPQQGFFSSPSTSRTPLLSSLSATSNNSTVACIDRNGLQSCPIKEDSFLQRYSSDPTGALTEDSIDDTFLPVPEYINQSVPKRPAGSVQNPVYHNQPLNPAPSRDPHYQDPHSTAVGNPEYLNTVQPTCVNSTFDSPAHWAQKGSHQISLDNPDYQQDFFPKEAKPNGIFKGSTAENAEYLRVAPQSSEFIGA
T3 sequence (P04626 with tags, fused parts or gaps INS775YVMA): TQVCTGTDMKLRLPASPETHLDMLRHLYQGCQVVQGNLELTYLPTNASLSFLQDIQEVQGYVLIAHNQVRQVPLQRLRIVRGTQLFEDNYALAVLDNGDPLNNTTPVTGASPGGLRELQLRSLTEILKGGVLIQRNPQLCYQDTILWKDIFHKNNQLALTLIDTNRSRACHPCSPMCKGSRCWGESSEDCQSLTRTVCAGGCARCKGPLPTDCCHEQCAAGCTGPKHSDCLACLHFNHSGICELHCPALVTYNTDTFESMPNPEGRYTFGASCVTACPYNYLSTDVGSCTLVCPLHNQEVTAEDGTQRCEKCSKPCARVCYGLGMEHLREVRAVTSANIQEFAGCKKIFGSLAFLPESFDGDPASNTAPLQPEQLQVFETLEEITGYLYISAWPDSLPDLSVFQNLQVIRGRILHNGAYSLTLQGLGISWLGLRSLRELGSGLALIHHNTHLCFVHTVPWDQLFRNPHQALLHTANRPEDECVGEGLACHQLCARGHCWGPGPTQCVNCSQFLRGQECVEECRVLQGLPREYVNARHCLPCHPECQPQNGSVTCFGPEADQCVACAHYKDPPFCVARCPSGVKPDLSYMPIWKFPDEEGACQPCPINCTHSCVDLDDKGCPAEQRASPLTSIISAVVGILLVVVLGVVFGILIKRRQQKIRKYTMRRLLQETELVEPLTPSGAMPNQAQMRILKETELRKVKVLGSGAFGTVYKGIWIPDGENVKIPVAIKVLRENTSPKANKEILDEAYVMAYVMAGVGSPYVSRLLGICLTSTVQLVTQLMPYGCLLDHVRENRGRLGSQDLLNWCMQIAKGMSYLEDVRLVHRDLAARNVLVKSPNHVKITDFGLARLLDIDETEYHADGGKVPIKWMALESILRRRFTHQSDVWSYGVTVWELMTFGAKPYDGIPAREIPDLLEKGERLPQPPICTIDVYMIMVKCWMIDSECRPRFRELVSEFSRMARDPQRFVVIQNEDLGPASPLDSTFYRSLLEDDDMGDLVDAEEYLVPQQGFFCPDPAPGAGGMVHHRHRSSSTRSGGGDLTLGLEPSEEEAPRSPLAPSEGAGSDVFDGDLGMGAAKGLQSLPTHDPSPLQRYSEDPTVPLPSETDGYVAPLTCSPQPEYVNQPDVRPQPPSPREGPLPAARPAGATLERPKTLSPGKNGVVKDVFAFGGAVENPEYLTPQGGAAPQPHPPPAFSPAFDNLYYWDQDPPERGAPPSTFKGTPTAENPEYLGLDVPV

In the case of `C=CC(=O)Nc1cc(Nc2ncnc(Nc3cc(F)c(C4CC4)cc3C(C)(C)O)n2)c(OC)cc1N1CC[C@@H]2CN(C)C[C@@H]21` [Compound 45, N-(5-(4-(4-cyclopropyl-5-fluoro-2-(2-hydroxypropan-2-yl)phenylamino)-1,3,5-triazin-2-ylamino)-4-methoxy-2-((3aR,6aR)-5-methylhexahydropyrrolo[3,4-b]pyrrol-1(2H)-yl)phenyl)acrylamide], the concentration for 50% growth inhibition (GI50) is 0.0116 µM in [1]; 0.0043 µM in assay [4]; 0.0178 µM in assay [5]; 0.0011 µM in assay [7]; 0.00525 µM in [9]; 0.00233 µM in assay [10]. For the same compound, the GI50 was 0.0136 µM in [12], more than 3 µM in [13] and 0.0308 µM in [14]. Also, the IC50 is 0.0029 µM in assay [2]; 0.0065 µM in [3]; 0.003 µM in assay [6]; 0.0003 µM in assay [8]; 0.0076 µM in assay [11].

Consider `C=CC(=O)Nc1cc(Nc2ncnc(Nc3cc(F)c(C4CC4)cc3C(C)(C)O)n2)c(OC)cc1N1CCC[C@@H]1CN(C)C` [Compound 46, (R)-N-(5-(4-(4-cyclopropyl-5-fluoro-2-(2-hydroxypropan-2-yl)phenylamino)-1,3,5-triazin-2-ylamino)-2-(2-((dimethylamino)methyl)pyrrolidin-1-yl)-4-methoxyphenyl)acrylamide], for which the concentration for 50% growth inhibition (GI50) in assay [1] worked out at 0.00649 µM; in assay [4] it was 0.0045 µM; in assay [5] it was 0.0188 µM; in assay [7], 0.0014 µM; in assay [9], 0.00297 µM; in assay [10], 0.0009 µM. Moreover, the GI50 in assay [12] stood at 0.0082 µM; in [13], 2.58 µM; in assay [14] it was 0.0168 µM. In addition, the half-maximal inhibitory concentration (IC50) in assay [2] came out at 0.0025 µM; in assay [3] it was 0.0064 µM; in [6] it was 0.0017 µM; in [8], 0.0002 µM; in [11], 0.0087 µM.

On to `C=CC(=O)Nc1cc(Nc2ncnc(Nc3cc(F)c(F)cc3C(C)(O)CC)n2)c(OC)cc1N1CC[C@@H]2CN(C)C[C@@H]21` (stereo partly drawn) [Compound 47, N-(5-(4-(4,5-difluoro-2-(2-hydroxybutan-2-yl)phenylamino)-1,3,5-triazin-2-ylamino)-4-methoxy-2-((3aR,6aR)-5-methylhexahydropyrrolo[3,4-b]pyrrol-1(2H)-yl)phenyl) acrylamide], for which the GI50 in [1] is 0.208 µM; in assay [4], 0.0109 µM; in assay [5], 0.0271 µM; in assay [7], 0.0019 µM; in assay [9] it was 0.775 µM; in assay [10] it was 0.0553 µM. In addition, the 50% growth inhibitory concentration (GI50) in assay [12] was 0.0221 µM; in assay [13], more than 3 µM; in [14], 0.0341 µM. In addition, the 50% inhibitory concentration (IC50) in assay [2] is 0.0056 µM; in [3], 0.0101 µM; in [6], 0.0044 µM; in assay [8], 0.0003 µM; in [11] it was 0.0238 µM.

`C=CC(=O)Nc1cc(Nc2ncnc(Nc3cc(F)c(F)cc3C(C)(O)CC)n2)c(OC)cc1N1CC[C@@H](N(C)C)C1` (stereo partly drawn) [Compound 48, N-(5-(4-(4,5-difluoro-2-(2-hydroxybutan-2-yl)phenylamino)-1,3,5-triazin-2-ylamino)-2-((R)-3-(dimethylamino)pyrrolidin-1-yl)-4-methoxyphenyl)acrylamide]: the GI50 came to 0.371 µM in assay [1]; 0.0141 µM in [4]; 0.0579 µM in assay [5]; 0.0032 µM in [7]; 0.0141 µM in assay [9]; 0.0702 µM in [10]. Moreover, the values for the GI50 in assay [12], in assay [13] and in assay [14] were 0.0291 µM, more than 3 µM and 0.0579 µM, respectively. In addition, the IC50 was found to be 0.0111 µM in assay [2]; 0.0162 µM in [3]; 0.0028 µM in assay [6]; 0.0004 µM in [8]; 0.0284 µM in assay [11].

For `C=CC(=O)Nc1cc(Nc2ncnc(Nc3cc(F)c(F)cc3C(C)(O)CC)n2)c(OC)cc1N(C)CCN(C)C` (stereo not shown) [Compound 49, N-(5-(4-(4,5-difluoro-2-(2-hydroxybutan-2-yl)phenylamino)-1,3,5-triazin-2-ylamino)-2-((2-(dimethylamino)ethyl)(methyl)amino)-4-methoxyphenyl)acr ylamide], the GI50 in assay [1] was found to be 0.566 µM; in assay [4] it was 0.0153 µM; in assay [5], 0.0316 µM; in [7], 0.0015 µM; in assay [9] it was 1.25 µM; in [10], 0.107 µM. For the same compound, the figures for the concentration for 50% growth inhibition (GI50) in assay [12], in assay [13] and in assay [14] were 0.0319 µM, more than 3 µM and 0.0361 µM, respectively. For the same compound, the IC50 is 0.0196 µM in assay [2]; 0.0096 µM in assay [3]; 0.0062 µM in assay [6]; 0.0005 µM in [8]; 0.0228 µM in assay [11].

Take `C=CC(=O)Nc1cc(Nc2ncnc(Nc3cc(Cl)c(Cl)cc3C(C)(C)O)n2)c(OC)cc1N1CC[C@@H]1CN(C)C` [Compound 54, (R)-N-(5-(4-(4,5-dichloro-2-(2-hydroxypropan-2-yl)phenylamino)-1,3,5-triazin-2-ylamino)-2-(2-((dimethylamino)methyl)azetidin-1-yl)-4-methoxyphenyl)acrylamide]: the GI50 in assay [1] worked out at 0.00997 µM; in [4] it was 0.0413 µM; in [5], 0.068 µM; in assay [7] it was 0.0061 µM; in [9], 0.00442 µM; in assay [10], 0.00362 µM. Also, the GI50 was 0.104 µM in [12], more than 3 µM in assay [13] and 0.209 µM in assay [14]. Besides, the IC50 in assay [2] is 0.0299 µM; in assay [3] it was 0.0394 µM; in assay [6] it was 0.0142 µM; in [8] it was 0.0024 µM; in assay [11], 0.0605 µM.

On to `C=CC(=O)Nc1cc(Nc2ncnc(Nc3cc(F)c(F)cc3C(C)(O)CC)n2)c(OC)cc1N1CC[C@@H]1CN(C)C` (stereo partly drawn) [Compound 55, N-(5-(4-(4,5-difluoro-2-(2-hydroxybutan-2-yl)phenylamino)-1,3,5-triazin-2-ylamino)-2-((R)-2-((dimethylamino)methyl)azetidin-1-yl)-4-methoxyphenyl)acrylamide], for which the GI50 in assay [1] was 0.012 µM; in assay [4], 0.0146 µM; in assay [5], 0.0626 µM; in [7] it was 0.0038 µM; in [9], 0.00668 µM; in [10] it was 0.0115 µM. Also, the concentration for 50% growth inhibition (GI50) in assay [12] was 0.0441 µM; in assay [13], more than 3 µM; in [14] it was 0.0889 µM. Moreover, the IC50 in assay [2] was 0.0201 µM; in [3], 0.0098 µM; in [6], 0.0084 µM; in [8], 0.0008 µM; in [11], 0.0309 µM.

`C=CC(=O)Nc1cc(Nc2ncnc(Nc3cc(Cl)c(F)cc3C(C)(O)CC)n2)c(OC)cc1N1CC[C@@H]1CN(C)C` (stereo partly drawn) [Compound 56, N-(5-(4-(5-chloro-4-fluoro-2-(2-hydroxybutan-2-yl)phenylamino)-1,3,5-triazin-2-ylamino)-2-((R)-2-((dimethylamino)methyl)azetidin-1-yl)-4-methoxyphenyl)acrylamide]: the 50% growth inhibitory concentration (GI50) was found to be 0.0134 µM in assay [1]; 0.0143 µM in assay [4]; 0.0638 µM in [5]; 0.0042 µM in assay [7]; 0.0146 µM in assay [9]; 0.00707 µM in assay [10]. Also, the concentration for 50% growth inhibition (GI50) in assay [12] was 0.0451 µM; in [13] it was more than 3 µM; in [14], 0.0766 µM. The IC50 turned out to be 0.0178 µM in assay [2]; 0.0155 µM in assay [3]; 0.0078 µM in assay [6]; 0.001 µM in assay [8]; 0.0354 µM in [11].

In general, GI50 refers to the concentration giving 50% growth inhibition. As a reminder, the IC50 is the midpoint of a concentration-inhibition curve.
